Test results taken from patent US20130184316A1, “METHODS FOR DIAGNOSING AND TREATING CONCUSSIVE DISORDERS” (priority 2010, published 2013).

Columns and labels:
subject with PCS [1] = assay: PCS Symptom Cluster Scale, weighted point system; assay type: in vivo, human; set-up: key to Raw score: Vertigo / Raw score: Persistence or perseveration of proprioceptive sensations (e.g., feeling motion after coming to rest) / Raw score: Diplopia / Raw score: Impairment of gait: 0 never, 1 sometimes, 2 often, 3 always/nearly always present; key to Weighted Score: Vertigo / Weighted Score: Insomnia / Weighted Score: Difficulty in standing for more than 5 minutes: raw frequency score (0-3) multiplied by weight factor; details: after therapy with 4-AP
Text: In one embodiment, a point system is presented in which symptoms from each cluster are further assigned a point value. The evaluation should rate the frequency of each symptom over the span of about one week prior to the assessment, according to the following scale: 0—Never present, 1—Sometimes present, 2—Often present, 3—Always or Nearly always present. In this context, occurrence of a symptom from about 1 to 5 times per week would classify as sometimes present, occurrence from about 5 to about 10 times per week would classify as often present, and occurrence about 10 or more times per week would classify as always or nearly always present. The rating number for each item should be recorded as the raw score. Each raw score should then be multiplied by the weight factor to obtain the weighted score.
To achieve this goal, a point system was applied to discrete symptoms within symptom Clusters to specifically define a class of PCS patient that will be likely to benefit from treatment from 4-AP. According to the weighted point system, symptoms from each cluster are further assigned a point value. The frequency of each symptom over the span of about one week prior to the assessment was rated according to the following scale: 0—Never present, 1—Sometimes present, 2—Often present, 3—Always or Nearly always present. The rating number for each item was recorded as the raw score, and the raw score was then multiplied by the weight factor to obtain the weighted score.

subject with PCS [2] = assay: Empiric clinical trial of 4AP, reported symptoms and side effects; assay type: in vivo, human
Text: The study Subject had persisting stress-induced episodes of weakness and dysequilibrium, along with DBN. A crude phenomenological similarity of these symptoms to EA2 was noted. DNA sequencing of Subject's CACNA1A gene was done; no abnormality was found. Given intractable, persisting, and incapacitating nature of Subject's symptoms and the absence of any therapeutic alternatives, an empiric clinical trial of 4AP was agreed upon. Given subject's history of nephrolithiasis, it was felt that 4AP would be less likely to cause significant adverse reactions than acetazolamide. Subject provided written informed consent.
The Subject was treated by oral administration of 4-AP, starting with a minimal dose of 5 mg. […] Treatment continued for about six months, at which point a wash-out period was initiated.
Side effects (initial blurring of vision, insomnia, and dyspepsia) were mild. Given these clinical results, a prospective, double blind case study was performed.

[3] = Cluster A, raw score x weight 1, prior to therapy 3
[4] = Cluster A, raw score x weight 3, prior to therapy 6
[5] = Cluster B, raw score x weight 4, prior to therapy 8
[6] = Cluster C, raw score x weight 2, prior to therapy 2
[7] = Cluster C, raw score x weight 3, prior to therapy 9

Structure (SMILES): Nc1ccncc1 [4-AP, 4-Amino pyridine]
- Raw score: Difficulty in standing for more than 5 minutes (subject with PCS [1]; Cluster A, prior to therapy 0): 0
- Raw score: Difficulty moving body position (e.g., from chair to bed or toilet) (subject with PCS [1]; Cluster A, prior to therapy 1): 0
- Raw score: Difficulty maintaining balance while looking over shoulder (subject with PCS [1]; Cluster A, prior to therapy 2): 0
- Raw score: Difficulty rising unaided from a sitting position or from sitting on the floor (subject with PCS [1]; Cluster A, prior to therapy 2): 0
- Raw score: Impairment of gait (subject with PCS [1]; Cluster A, prior to therapy 2): 0
- Raw score: Inability to maintain stability while standing with eyes closed or with feet together (subject with PCS [1]; Cluster A, prior to therapy 2): 1 (Sometimes present)
- Raw score: Difficulty conversing while walking (subject with PCS [1]; Cluster A, prior to therapy 3): 1 (Sometimes present)
- Raw score: Difficulty tossing objects from hand to hand while walking (subject with PCS [1]; Cluster A, prior to therapy 3): 1 (Sometimes present)
- Raw score: Inability to maintain heel-to-toe gait (subject with PCS [1]; Cluster A, prior to therapy 3): 1 (Sometimes present)
- Weighted Score: Difficulty moving body position (e.g., from chair to bed or toilet) (subject with PCS [1]; Cluster A, raw score x weight 1, prior to therapy 1): 0
- Weighted Score: Difficulty rising unaided from a sitting position or from sitting on the floor (subject with PCS [1]; Cluster A, raw score x weight 1, prior to therapy 2): 0
- Weighted Score: Difficulty tossing objects from hand to hand while walking (subject with PCS [1]; [3]): 1
- Weighted Score: Inability to maintain heel-to-toe gait (subject with PCS [1]; [3]): 1
- Weighted Score: Difficulty in standing for more than 5 minutes (subject with PCS [1]; Cluster A, raw score x weight 2, prior to therapy 0): 0
- Weighted Score: Difficulty maintaining balance while looking over shoulder (subject with PCS [1]; Cluster A, raw score x weight 2, prior to therapy 4): 0
- Weighted Score: Impairment of gait (subject with PCS [1]; [4]): 0
- Weighted Score: Inability to maintain stability while standing with eyes closed or with feet together (subject with PCS [1]; [4]): 3
- Weighted Score: Difficulty conversing while walking (subject with PCS [1]; Cluster A, raw score x weight 3, prior to therapy 9): 3
- Raw score: Oscillopsia (perception of stationary objects moving) (subject with PCS [1]; Cluster B, prior to therapy 2): 0
- Raw score: Persistence or perseveration of proprioceptive sensations (e.g., feeling motion after coming to rest) (subject with PCS [1]; Cluster B, prior to therapy 2): 0
- Raw score: Persistent sensation of walking on soft or moving surface (subject with PCS [1]; Cluster B, prior to therapy 2): 0
- Raw score: Vertigo (subject with PCS [1]; Cluster B, prior to therapy 2): 0
- Raw score: Vestibular seizures (subject with PCS [1]; Cluster B, prior to therapy 2): 0
- Raw score: Persistent sensation of being off-balance or tilted (subject with PCS [1]; Cluster B, prior to therapy 3): 1 (Sometimes present)
- Weighted Score: Vertigo (subject with PCS [1]; Cluster B, raw score x weight 2, prior to therapy 6): 0
- Weighted Score: Persistent sensation of walking on soft or moving surface (subject with PCS [1]; Cluster B, raw score x weight 3, prior to therapy 6): 0
- Weighted Score: Oscillopsia (perception of stationary objects moving) (subject with PCS [1]; [5]): 0
- Weighted Score: Persistence or perseveration of proprioceptive sensations (e.g., feeling motion after coming to rest) (subject with PCS [1]; [5]): 0
- Weighted Score: Persistent sensation of being off-balance or tilted (subject with PCS [1]; Cluster B, raw score x weight 4, prior to therapy 12): 4
- Weighted Score: Vestibular seizures (subject with PCS [1]; Cluster B, raw score x weight 5, prior to therapy 10): 0
- Raw score: Apathy, listlessness, blunting of affect (subject with PCS [1]; Cluster C, prior to therapy 1): 0
- Raw score: Emotional lability or exaggerated emotions (subject with PCS [1]; Cluster C, prior to therapy 1): 0
- Raw score: Persistent or frequent irritability (subject with PCS [1]; Cluster C, prior to therapy 1): 0
- Raw score: Persisting difficulty with registration or retention of newly presented information in any modality (subject with PCS [1]; Cluster C, prior to therapy 2): 1 (Sometimes present)
- Raw score: Inability to perform two simple tasks concurrently (multitasking) (subject with PCS [1]; Cluster C, prior to therapy 3): 1 (Sometimes present)
- Raw score: Inability to tolerate distraction (e.g., inability to complete simple task or resume conversation after interruption) (subject with PCS [1]; Cluster C, prior to therapy 3): 1 (Sometimes present)
- Raw score: Intolerance of noise, light, or commotion (subject with PCS [1]; Cluster C, prior to therapy 3): 1 (Sometimes present)
- Raw score: Slowed speed of mental processing or responding (subject with PCS [1]; Cluster C, prior to therapy 3): 0
- Weighted Score: Apathy, listlessness, blunting of affect (subject with PCS [1]; [6]): 0
- Weighted Score: Emotional lability or exaggerated emotions (subject with PCS [1]; [6]): 0
- Weighted Score: Persistent or frequent irritability (subject with PCS [1]; [6]): 0
- Weighted Score: Persisting difficulty with registration or retention of newly presented information in any modality (subject with PCS [1]; Cluster C, raw score x weight 2, prior to therapy 4): 2
- Weighted Score: Slowed speed of mental processing or responding (subject with PCS [1]; Cluster C, raw score x weight 2, prior to therapy 6): 0
- Weighted Score: Inability to perform two simple tasks concurrently (multitasking) (subject with PCS [1]; [7]): 3
- Weighted Score: Inability to tolerate distraction (e.g., inability to complete simple task or resume conversation after interruption) (subject with PCS [1]; [7]): 3
- Weighted Score: Intolerance of noise, light, or commotion (subject with PCS [1]; Cluster C, raw score x weight 4, prior to therapy 12): 4
- Raw score: Diplopia (subject with PCS [1]; Cluster D, prior to therapy 0): 0
- Raw score: Headache (subject with PCS [1]; Cluster D, prior to therapy 1): 2 (Often present)
- Raw score: Nystagmus (subject with PCS [1]; Cluster D, prior to therapy 1): 0
- Raw score: Anergy, chronic fatigue, hypersomnia (subject with PCS [1]; Cluster D, prior to therapy 2): 0
- Raw score: Insomnia (subject with PCS [1]; Cluster D, prior to therapy 2): 2 (Often present)
- Raw score: Difficulty in accommodation or focus (subject with PCS [1]; Cluster D, prior to therapy 3): 1 (Sometimes present)
- Raw score: Impairment of tracking an object in motion (subject with PCS [1]; Cluster D, prior to therapy 3): 0
- Weighted Score: Insomnia (subject with PCS [1]; Cluster D, raw score x weight 1, prior to therapy 2): 2
- Weighted Score: Diplopia (subject with PCS [1]; Cluster D, raw score x weight 2, prior to therapy 0): 0
- Weighted Score: Headache (subject with PCS [1]; Cluster D, raw score x weight 2, prior to therapy 2): 4
- Weighted Score: Anergy, chronic fatigue, hypersomnia (subject with PCS [1]; Cluster D, raw score x weight 3, prior to therapy 6): 0
- Weighted Score: Difficulty in accommodation or focus (subject with PCS [1]; Cluster D, raw score x weight 3, prior to therapy 9): 3
- Weighted Score: Nystagmus (subject with PCS [1]; Cluster D, raw score x weight 4, prior to therapy 4): 0
- Weighted Score: Impairment of tracking an object in motion (subject with PCS [1]; Cluster D, raw score x weight 4, prior to therapy 12): 0
- Total weighted score of symptoms (subject with PCS [1]; prior to therapy 165): 33 points
- Side effects (initial blurring of vision, insomnia, and dyspepsia) (subject with PCS [2]; 10 mg twice daily): mild
- Symptoms reported by the Subject (subject with PCS [2]; 10 mg twice daily): significant reduction in all symptoms
- Symptoms reported by the Subject (subject with PCS [2]; oral, doses increased to 30 mg per day, lasted for the duration of treatment (about six months)): dramatic improvement in symptoms
- Adverse effects observed or reported within 3 hours of administration (subject with PCS [2]; oral, minimal starting dose of 5 mg): No visible adverse effects
- Symptom intensity after termination of 4-AP treatment (subject with PCS [2]; wash-out after about six months of treatment): rapid relapse of symptom intensity
